Measured values as given in patent publication US6794378B2, “Heterocyclic compounds and medical use thereof” (Ajinomoto Co., Inc., priority 1999, dated 2004).
In brackets after ≈: the same amount, converted by molar mass.

What was measured:
[1] = system: NF-kappa B transcriptional activity; assay: Evaluation of the NF-kappa B inhibition (β-gal reporter in immortalized HUVEC, IL-1 β induced); format: cell-based; conditions: Homo sapiens; HUVEC NF-kappaB β-gal reporter cells; IL-1 β induction; β-gal activity determined 16 hours after; read-out: NFkB inhibition activity IC50
Procedure: Evaluation of the NF-kappa B Inhibition
Cells used for the tests were those prepared by stably introducing E. coli β-galactosidase (β-gal) genes driven by SV 40 minimum promoter fused with 6 tandems of the NF-KappaB binding motif derived from immunoglobulin kappa light chain enhancer into human normal umbilical cord vein endothelial cells (HUVEC) immortalized with SV 40 large T antigen. The cells were subcultured in RPMI medium containing 10% of FBS, and were seeded on a 96-well plate in a concentration of 1×10^4/well on a day before the start of the experiments. A compound of the present invention was dissolved in DMSO to obtain a solution of a proper concentration, which was added into the 96-well plate so that the final DMSO concentration would be not higher than 1%. 30 minutes after the addition of the compound, in order to induce NF-kappa B transcriptional activity, […] of IL-1 β was added to each well so as to obtain the final concentration of […]. β-gal activity was determined 16 hours after with a chemiluminescent substrate (Galacton-Light-Plus: Boehringer Mannheim) according to a protocol attached to the reagent. A Luminescence detector (ATTO) was used for the determination.

anti-TTx antibody titer = assay: Antibody titer inhibition test (TTx-sensitized monkeys, ELISA); format: in vivo; conditions: Rhesus monkeys, 50 mg/kg orally twice daily for 4 weeks from TTx sensitization
Procedure: (§1) An antibody titer inhibition test and a delayed-type hypersensitivity reaction inhibition test
(§2) Rhesus monkeys (female, aged four to six) subjected to the test were sensitized with 6Lf of TTx (Tetanus Toxoid) both in the back skin and in the femur muscle under anesthesia by an intramuscular injection of ketamine. The subject drug at the dose of 50 mg/kg had been administered twice daily (7:00 am and 7:00 pm) for 4 weeks starting at the day of TTx sensitization. The drug was suspended with 0.5% Tween 80 solution and was orally administered using a gastric catheter. The control animals were administered with the vehicle in the same manner as those for the test article. One ml of blood was drawn from femoral vein of each animal twice a week to obtain sera with which the anti-TTx antibody titer was evaluated by the ELISA method. The antibody titer was determined with OD of serially-diluted serum from 1:100 by 2 times and was defined as the degree of dilution reaching to “an average OD of the antibody before immunization+2×SD”. One hour after the final administration in the morning on day 28, TTx was challenged once in the thoracic skin (10, 3, 1, 0.3, 0.1, 0.03 Lf/ml, 10 μl/site), and skin reactions at the injection sites were observed 24 and 48 hours after the TTx challenge. The delayed-type hypersensitivity reaction was scored according to the Draize dermal test criteria.

[2] = system: delayed-type hypersensitivity reaction; assay: Delayed-type hypersensitivity reaction inhibition test (TTx challenge in thoracic skin); format: in vivo; conditions: Rhesus monkeys, 50 mg/kg orally twice daily for 4 weeks; TTx challenge day 28, skin reactions 24 and 48 hours after, Draize criteria
Procedure: as §1, §2

| Structure (SMILES) | IC50 [1] [µg/mL] | inhibiting effect on anti-TTx antibody titer (anti-TTx antibody titer) | inhibiting effect on delayed-type hypersensitivity reaction [2] |
| --- | --- | --- | --- |
| CC1(C)CC1C(=O)Nc1ccc(Oc2ccc(NC(=O)C3CC3(C)C)cn2)cc1 (stereo not shown) [Example 1] | 0.5 (≈ 1.27 µM) |  |  |
| CC1(C)CC1C(=O)Nc1ccc(Sc2ccc(NC(=O)C3CC3(C)C)cn2)cc1 (stereo not shown) [Example 2] | 0.3 (≈ 0.733 µM) |  |  |
| CC1(C)CC1C(=O)Nc1ccc(Nc2ccc(NC(=O)C3CC3(C)C)cn2)cc1 (stereo not shown) [Example 3] | 0.8 (≈ 2.04 µM) |  |  |
| CC1(C)CC1C(=O)Nc1ccc(C(O)c2ccc(NC(=O)C3CC3(C)C)nc2)cc1 (stereo not shown) [Example 4] | 1 (≈ 2.45 µM) |  |  |
| CC1(C)CC1C(=O)Nc1ccc(Cc2ccc(NC(=O)C3CC3(C)C)nc2)cc1 (stereo not shown) [Example 5] | 0.9 (≈ 2.3 µM) |  |  |
| CC1(C)CC1C(=O)Nc1ccc(C(O)c2ccc(NC(=O)C3CC3(C)C)cn2)cc1 (stereo not shown) [Example 6] | 0.4 (≈ 0.982 µM) |  |  |
| CC1(C)CC1C(=O)Nc1ccc(Cc2ccc(NC(=O)C3CC3(C)C)cn2)cc1 (stereo not shown) [Example 7] | 1.5 (≈ 3.83 µM) |  |  |
| CC1(C)CC1C(=O)Nc1ccc(Oc2ccc(NC(=O)C3CC3(C)C)nn2)cc1 (stereo not shown) [Example 8] | 1.5 (≈ 3.8 µM) |  |  |
| CC1(C)CC1C(=O)Nc1ccc(Nc2ncc(NC(=O)C3CC3(C)C)cn2)cc1 (stereo not shown) [Example 9] | 0.7 (≈ 1.78 µM) |  |  |
| CC1(C)CC1C(=O)Nc1ccc(CSc2ccc(NC(=O)C3CC3(C)C)cn2)cc1 (stereo not shown) [Example 14] | 0.015 (≈ 0.0354 µM) |  |  |
| Cc1cc(Oc2ccc(NC(=O)C3CC3(C)C)cn2)ccc1NC(=O)C1CC1(C)C (stereo not shown) [Example 22] | 0.15 (≈ 0.368 µM) |  |  |
| O=C(Nc1ccc(Oc2ccc(NC(=O)C3CC3(Cl)Cl)cn2)cc1)C1CC1(Cl)Cl (stereo not shown) [Example 26] | 0.15 (≈ 0.316 µM) |  |  |
| CC1CCCCC1C(=O)Nc1ccc(Oc2ccc(NC(=O)C3CCCCC3C)cn2)cc1 (stereo not shown) [Example 29] | 1 (≈ 2.22 µM) |  |  |
| CC1(C)CC1C(=O)Nc1ccc(Oc2ccc(NC(=O)c3ccccc3)cc2)nc1 (stereo not shown) [Example 31] | 1.5 (≈ 3.74 µM) |  |  |
| CC1(C)CC1C(=O)Nc1ccc(Oc2ccc(NC(=O)Cc3ccccc3)cc2)nc1 (stereo not shown) [Example 32] | 0.1 (≈ 0.241 µM) |  |  |
| CC1(C)CC1C(=O)Nc1ccc(Oc2ccc(NC(=O)Cc3ccc(Cl)cc3)cc2)nc1 (stereo not shown) [Example 33] | 0.2 (≈ 0.445 µM) |  |  |
| COc1ccc(CC(=O)Nc2ccc(Oc3ccc(NC(=O)C4CC4(C)C)cn3)cc2)cc1 (stereo not shown) [Example 34] | 0.3 (≈ 0.673 µM) |  |  |
| CC1(C)CC1C(=O)Nc1ccc(Oc2ccc(NC(=O)CCCc3ccccc3)cc2)nc1 (stereo not shown) [Example 37] | 0.09 (≈ 0.203 µM) |  |  |
| CC1(C)CC1C(=O)Nc1ccc(Oc2ccc(NCCc3ccccc3)cc2)nc1 (stereo not shown) [Example 38] | 0.05 (≈ 0.125 µM) |  |  |
| CC1(C)CC1C(=O)Nc1ccc(Oc2ccc(NCCCc3ccccc3)cc2)nc1 (stereo not shown) [Example 39] | 0.035 (≈ 0.0842 µM) |  |  |
| CC1(C)C[C@@H]1C(=O)Nc1ccc(Oc2ccc(NC(=O)[C@H]3CC3(C)C)cn2)cc1 [Example 43] | 0.25 (≈ 0.635 µM) | exhibited its inhibiting effect | exhibited its inhibiting effect |
| CC1(C)C[C@@H]1C(=O)Nc1ccc(Oc2ccc(NC(=O)[C@@H]3CC3(C)C)cc2)nc1 [Example 44] | 0.1 (≈ 0.254 µM) |  |  |
| CC1(C)C[C@@H]1C(=O)Nc1ccc(Oc2ccc(NC(=O)[C@@H]3CC3(C)C)cn2)cc1 [Example 45] | 1 (≈ 2.54 µM) |  |  |
